{"source": "patent US20260207560A1", "about": "“PLURALITY OF GRANULES” (priority 2022, published 2026)", "key": {"[1]": {"assay": "Compatibility of active ingredient with HPMC and gelatin capsule shells (assay, related substances)", "format": "physicochemical", "conditions": "for Related substances total / Related substance RRT 0.92 / Related substance RRT 1.04 / Related substance RRT 1.35 / Related substance RRT 1.36 / Related substance RRT 0.98 / Related substance RRT 1.10: Hard Gelatin capsule shell", "method": "Binary mixtures of the active ingredient with the capsules shells were made as follows: • An active ingredient doping solution (active ingredient dissolved in ethanol) was made ([…]). A 100 μL aliquot of this doping was used to ‘spike’ the 10 vials of each capsule shell type as described in Table 5. The nominal quantity of active ingredient per vial was therefore 50 μg. • No doping solution was added to the three control vials of the excipient. • The active vials were left open overnight to evaporate all the ethanol, before closing the vials. • Both the active and placebo control vials were placed on stability for up to 28 days at 25° C. and 50° C."}, "[2]": {"assay": "Solubility of active ingredient in volatile solvents (visual)", "conditions": "for solubility: thermodynamic from solid, Solubility of the active ingredient; for solubility / Solubility of the active ingredient: visual; for Solubility of the active ingredient: listed as active ingredient", "protocol": "The active ingredient was dissolved in different solvents and the stability of the solution was assessed after being held overnight at ambient temperature. The following solvents were studied: ethanol, 50:50 EtOH:Water, 0.1 M HCl, pH 3 citric acid buffer, 5% SLS aq. and 5% Tween 80 aq.\nThis study involved assessing the solubility and the chemical stability of the active ingredient in different volatile solvents for use in wet granulation. The solubility was measured visually after mixing (by the disappearance of undissolved solids). Increasing quantities of each solvent were added as detailed above."}, "[3]": {"assay": "Forced degradation study of the active substance (HPLC assay, observations)"}, "[4]": {"conditions": "50° C., 28 days, listed as active ingredient"}, "[5]": {"conditions": "initial, listed as active ingredient"}}, "note": "Values joined by “and” are separate entries in the source; they are usually repeats but may differ in a detail not shown here. Identical values can stand only once."}
{"smiles": "CCS(=O)(=O)Nc1ccc2c(c1)nc(C(C)(C)C)n2CC1CCC(F)(F)CC1", "note": "[Compound I, N-(2-(tert-butyl)-1-((4,4-difluorocyclohexyl)methyl)-1H-benzimidazol-5-yl)ethanesulfonamide]", "values": [{"measurement": "Related substances total", "setting": "[1]; 50° C., 14 days, listed as active ingredient", "result": "0.37% and 0.34%"}, {"measurement": "Related substance RRT 0.92", "setting": "[1]; 50° C., 28 days", "result": "<0.05", "unit": "%"}, {"measurement": "Related substance RRT 1.04", "setting": "[1]; 50° C., 28 days", "result": "<0.05", "unit": "%"}, {"measurement": "Related substance RRT 1.35", "setting": "[1]; 50° C., 28 days", "result": 0.06, "unit": "%"}, {"measurement": "Related substance RRT 1.36", "setting": "[1]; 50° C., 28 days", "result": 0.07, "unit": "%"}, {"measurement": "Related substances total", "setting": "[1]; 50° C., 28 days", "result": 0.33, "unit": "%"}, {"measurement": "Related substance RRT 0.98", "setting": "[1]; [4]", "result": "0.11% and 0.09%"}, {"measurement": "Related substance RRT 1.10", "setting": "[1]; [4]", "result": "0.09% and 0.11%"}, {"measurement": "Related substance RRT 1.04", "setting": "[1]; initial", "result": 0.05, "unit": "%"}, {"measurement": "Related substance RRT 1.10", "setting": "[1]; initial", "result": 0.10, "unit": "%"}, {"measurement": "Related substance RRT 1.36", "setting": "[1]; initial", "result": 0.08, "unit": "%"}, {"measurement": "Related substance RRT 0.92", "setting": "[1]; [5]", "result": "0.06% and 0.05%"}, {"measurement": "Related substance RRT 0.98", "setting": "[1]; [5]", "result": "0.26% and 0.24%"}, {"measurement": "Related substance RRT 1.35", "setting": "[1]; [5]", "result": "0.08% and 0.07%"}, {"measurement": "Related substances total", "setting": "[1]; [5]", "result": "0.62% and 0.58%"}, {"measurement": "Total impurities", "setting": "[1]; both capsule types, all incubation times and temperatures", "result": "below 1%"}, {"measurement": "solubility", "setting": "[2]; 0.1 M HCl, simulated gastric fluid", "result": 7000, "unit": "µg/mL"}, {"measurement": "Solubility of the active ingredient", "setting": "[2]; 0.1 M HCl", "result": "> 7000", "unit": "µg/mL"}, {"measurement": "Time to dissolve", "setting": "[2]; 5% SLS aq., 0.6 mg/mL", "result": 70, "unit": "min"}, {"measurement": "Time to dissolve (DND = did not dissolve)", "setting": "[2]; 5% SLS aq., 3 mg/mL", "result": "DND"}, {"measurement": "Time to dissolve (DND = did not dissolve)", "setting": "[2]; 5% SLS aq., 7 mg/mL", "result": "DND"}, {"measurement": "solubility", "setting": "[2]; 5% Tween 80 aq., aqueous with cosolvent or surfactant or cyclodextrin, 5% Tween 80", "result": "< 600", "unit": "µg/mL"}, {"measurement": "Time to dissolve (DND = did not dissolve)", "setting": "[2]; 5% Tween 80 aq., 0.6 mg/mL", "result": "DND"}, {"measurement": "Time to dissolve (DND = did not dissolve)", "setting": "[2]; 5% Tween 80 aq., 3 mg/mL", "result": "DND"}, {"measurement": "Time to dissolve (DND = did not dissolve)", "setting": "[2]; 5% Tween 80 aq., 7 mg/mL", "result": "DND"}, {"measurement": "solubility", "setting": "[2]; 50:50 EtOH:water, aqueous with cosolvent or surfactant or cyclodextrin, 50:50 EtOH:water", "result": "< 600", "unit": "µg/mL"}, {"measurement": "Time to dissolve (DND = did not dissolve)", "setting": "[2]; 50:50 EtOH:water, 0.6 mg/mL", "result": "DND"}, {"measurement": "Time to dissolve (DND = did not dissolve)", "setting": "[2]; 50:50 EtOH:water, 3 mg/mL", "result": "DND"}, {"measurement": "Time to dissolve (DND = did not dissolve)", "setting": "[2]; 50:50 EtOH:water, 7 mg/mL", "result": "DND"}, {"measurement": "solubility", "setting": "[2]; aqueous 5% SLS, aqueous with cosolvent or surfactant or cyclodextrin", "result": "> 600", "unit": "µg/mL"}, {"measurement": "solubility", "setting": "[2]; ethanol, organic solvent or mixture", "result": 7000, "unit": "µg/mL"}, {"measurement": "Solubility of the active ingredient", "setting": "[2]; ethanol", "result": "> 7000", "unit": "µg/mL"}, {"measurement": "solubility", "setting": "[2]; pH 3 citric acid buffer, pH 3, aqueous buffer, pH 3 citric buffer", "result": "> 600", "unit": "µg/mL"}, {"measurement": "Time to dissolve", "setting": "[2]; pH 3 citric acid buffer, 0.6 mg/mL", "result": 180, "unit": "min"}, {"measurement": "Time to dissolve (DND = did not dissolve)", "setting": "[2]; pH 3 citric acid buffer, 3 mg/mL", "result": "DND"}, {"measurement": "Time to dissolve (DND = did not dissolve)", "setting": "[2]; pH 3 citric acid buffer, 7 mg/mL", "result": "DND"}, {"measurement": "Sample observations", "setting": "[3]; Test 1 Control (solution, ambient temperature)", "result": "Clear colourless solution. No change over study period."}, {"measurement": "Assay of active substance", "setting": "[3]; Test 1 solution control, 0 days", "result": 99.40, "unit": "area %"}, {"measurement": "Assay of active substance", "setting": "[3]; Test 1 solution control, 3 days", "result": 99.42, "unit": "area %"}, {"measurement": "Assay of active substance", "setting": "[3]; Test 1 solution control, 7 days", "result": 99.30, "unit": "area %"}, {"measurement": "Assay of active substance", "setting": "[3]; Test 1 solution control, 11 days", "result": 99.39, "unit": "area %"}, {"measurement": "Sample observations", "setting": "[3]; Test 2 Solid state 100° C.", "result": "Off-white solid turning to very faint orange solid over study"}, {"measurement": "Assay of active substance", "setting": "[3]; Test 2 solid state at 100° C., 3 days", "result": 99.43, "unit": "area %"}, {"measurement": "Assay of active substance", "setting": "[3]; Test 2 solid state at 100° C., 7 days", "result": 99.40, "unit": "area %"}, {"measurement": "Sample observations", "setting": "[3]; Test 3 Acid 60° C.", "result": "Clear colourless solution. No change over study period."}, {"measurement": "Sample observations", "setting": "[3]; Test 3 Acid (1M, ambient temperature)", "result": "Clear colourless solution. No change over study period."}, {"measurement": "Assay of active substance", "setting": "[3]; Test 3 acid (1M) ambient temperature, 3 days", "result": 99.40, "unit": "area %"}, {"measurement": "Assay of active substance", "setting": "[3]; Test 3 acid (1M) ambient temperature, 7 days", "result": 99.41, "unit": "area %"}, {"measurement": "Assay of active substance", "setting": "[3]; Test 3 acid (1M) at 60° C. until day 7, 80° C. until day 11, 11 days", "result": 98.87, "unit": "area %"}, {"measurement": "Assay of active substance", "setting": "[3]; Test 3 acid (1M) at 60° C., 3 days", "result": 99.37, "unit": "area %"}, {"measurement": "Assay of active substance", "setting": "[3]; Test 3 acid (1M) at 60° C., 7 days", "result": 99.35, "unit": "area %"}, {"measurement": "Sample observations", "setting": "[3]; Test 4 Base 40° C.", "result": "Clear colourless solution. No change over study period."}, {"measurement": "Sample observations", "setting": "[3]; Test 4 Base (0.5M, ambient temperature)", "result": "Clear colourless solution. No change over study period."}, {"measurement": "Assay of active substance", "setting": "[3]; Test 4 base (0.5M) ambient temperature, 3 days", "result": 99.40, "unit": "area %"}, {"measurement": "Assay of active substance", "setting": "[3]; Test 4 base (0.5M) ambient temperature, 7 days", "result": 99.37, "unit": "area %"}, {"measurement": "Assay of active substance", "setting": "[3]; Test 4 base (0.5M) at 60° C. until day 7, 80° C. until day 11, 11 days", "result": 99.16, "unit": "area %"}, {"measurement": "Assay of active substance", "setting": "[3]; Test 4 base (0.5M) at 60° C., 3 days", "result": 99.34, "unit": "area %"}, {"measurement": "Assay of active substance", "setting": "[3]; Test 4 base (0.5M) at 60° C., 7 days", "result": 99.32, "unit": "area %"}, {"measurement": "Sample observations", "setting": "[3]; Test 5 Heat 60° C. (solution)", "result": "Clear colourless solution. No change over study period"}, {"measurement": "Assay of active substance", "setting": "[3]; Test 5 solution at 60° C. until day 7, 80° C. until day 11, 11 days", "result": 98.00, "unit": "area %"}, {"measurement": "Assay of active substance", "setting": "[3]; Test 5 solution at 60° C., 3 days", "result": 99.13, "unit": "area %"}, {"measurement": "Assay of active substance", "setting": "[3]; Test 5 solution at 60° C., 7 days", "result": 99.34, "unit": "area %"}, {"measurement": "Sample observations", "setting": "[3]; Test 6 Peroxide (1.5%)", "result": "Clear colourless solution. No change over study period"}, {"measurement": "Assay of active substance", "setting": "[3]; Test 6 peroxide (1.5%), 3 days", "result": 98.50, "unit": "area %"}, {"measurement": "Assay of active substance", "setting": "[3]; Test 6 peroxide (1.5%), 7 days", "result": 97.75, "unit": "area %"}, {"measurement": "Assay of active substance", "setting": "[3]; Test 6 peroxide (1.5%), 13 days", "result": 96.58, "unit": "area %"}, {"measurement": "Sample observations", "setting": "[3]; Test 7 Photostability (Solution Control)", "result": "Clear colourless solution. No change over study period."}, {"measurement": "Assay of active substance", "setting": "[3]; Test 7 photocontrol solution", "result": 99.40, "unit": "area %"}, {"measurement": "Sample observations", "setting": "[3]; Test 8 Photostability (Solution Treated)", "result": "Clear colourless solution turning to a clear yellow solution"}, {"measurement": "Assay of active substance", "setting": "[3]; Test 8 photo treated solution, 1.92 million lux hours, near-UV 374.6 Whm^−2", "result": 74.53, "unit": "area %"}, {"measurement": "Sample observations", "setting": "[3]; Test 9 Photostability (Solid Control)", "result": "Off white solid. No change over study period."}, {"measurement": "Assay of active substance", "setting": "[3]; Test 9 photocontrol solid", "result": 99.40, "unit": "area %"}, {"measurement": "Sample observations", "setting": "[3]; Test 10 Photostability (Solid Treated)", "result": "Off-white solid turning to very faint orange solid over study"}, {"measurement": "Assay of active substance", "setting": "[3]; Test 10 phototreated solid, 1.92 million lux hours, near-UV 374.6 Whm^−2", "result": 99.31, "unit": "area %"}, {"measurement": "Forced degradation outcome (summary)", "setting": "[3]; peroxide, 1M acid, 0.5M base and solution when extended to 80° C.", "result": "slight degradation"}, {"measurement": "Forced degradation outcome (summary)", "setting": "[3]; solution at room temperature, solid at 100° C., 1M acid and 0.5M base at room temperature and 60° C., solution at 60° C., photostability as a solid", "result": "stable to degradation"}, {"measurement": "Forced degradation outcome (summary)", "setting": "[3]; solution under photostability conditions", "result": "Major degradation"}]}
